Measured values: a compilation of properties of binary mixtures (doi:10.1021/acs.jced.3c00374)

Assay: xn = mol fraction of the nth substance listed
Conditions: 100 kPa

OCCNCCO + CCCC[n+]1ccn(C)c1.N#C[S-]
speed of sound (288.15 K, x2 = 0): 1761.3 m/s
speed of sound (308.15 K, x2 = 0): 1700.6 m/s
speed of sound (318.15 K, x2 = 0): 1675.6 m/s

CCCC[n+]1ccn(C)c1.N#C[S-] + OCCNCCO
speed of sound (288.15 K, x1 = 0.1008): 1764.4 m/s
speed of sound (288.15 K, x1 = 0.2993): 1770.6 m/s
speed of sound (288.15 K, x1 = 0.4027): 1773.9 m/s
speed of sound (288.15 K, x1 = 0.5131): 1777.3 m/s
speed of sound (288.15 K, x1 = 0.7102): 1783.5 m/s
speed of sound (288.15 K, x1 = 0.8009): 1786.3 m/s
speed of sound (288.15 K, x1 = 0.9102): 1789.8 m/s
speed of sound (288.15 K, x1 = 1): 1792.6 m/s
speed of sound (298.15 K, x1 = 0.1008): 1732.8 m/s
speed of sound (298.15 K, x1 = 0.2103): 1737 m/s
speed of sound (298.15 K, x1 = 0.4027): 1744.5 m/s
speed of sound (298.15 K, x1 = 0.5131): 1748.7 m/s
speed of sound (298.15 K, x1 = 0.6087): 1752.4 m/s
speed of sound (298.15 K, x1 = 0.9102): 1764 m/s
speed of sound (298.15 K, x1 = 1): 1767.5 m/s
speed of sound (308.15 K, x1 = 0.1008): 1704.9 m/s
speed of sound (308.15 K, x1 = 0.2103): 1709.6 m/s
speed of sound (308.15 K, x1 = 0.4027): 1717.8 m/s
speed of sound (308.15 K, x1 = 0.5131): 1722.5 m/s
speed of sound (308.15 K, x1 = 0.7102): 1731 m/s
speed of sound (308.15 K, x1 = 0.9102): 1739.6 m/s
speed of sound (308.15 K, x1 = 1): 1743.4 m/s
speed of sound (318.15 K, x1 = 0.1008): 1680.4 m/s
speed of sound (318.15 K, x1 = 0.2103): 1685.6 m/s
speed of sound (318.15 K, x1 = 0.2993): 1689.8 m/s
speed of sound (318.15 K, x1 = 0.4027): 1694.8 m/s
speed of sound (318.15 K, x1 = 0.5131): 1700 m/s
speed of sound (318.15 K, x1 = 0.6087): 1704.6 m/s
speed of sound (318.15 K, x1 = 0.7102): 1709.4 m/s
speed of sound (318.15 K, x1 = 0.8009): 1713.7 m/s
